≈ marks a conversion by molar mass, not a printed value. Residues, ends and D or L forms follow the SMILES beside them.
Columns and labels:
[1] = test system: Carbapenem-resistant P. aeruginosa (CRPA), clinical isolate; assay type: cell-based, Pseudomonas aeruginosa; conditions: 1 h
Excerpt: Acinetobacter baumannii (ATCC 19606), B. subtilis (ATCC 6633), E. aerogenes (ATCC 13048), E. coli (ATCC 25922), E. faecalis (ATCC 19433), E. faecium (ATCC 19434), K. pneumoniae (ATCC 13883), P. aeruginosa (ATCC 27853), S. aureus (ATCC 29213), S. sindenensis (ATCC 23963), and MRSA (ATCC 33591) were purchased from the American Type Culture Collection (ATCC; Gaithersburg, MD, USA). Streptococcus pneumoniae (NCCP 14585), vancomycin-resistant E. faecium (NCCP 11522), and vancomycin-resistant S. aureus (NCCP 15872) were purchased from the National Culture Collection for Pathogens (NCCP; Cheongju, Korea). The isolation and use of carbapenem-resistant bacterial strains from a patient were approved (2015AN0129) by the Institutional Review Board (IRB) of Korea University Hospital. CRPA, CRKP, and CRAB were clinically isolated in Korea University Hospital (Seoul, Korea). CRPA was confirmed to be resistant to piperacillin, piperacillin-tazobactam, ceftazidime, imipenem, meropenem, gentamicin, amikacin, and ciprofloxacin. CRAB was confirmed to be resistant to piperacillin, piperacillin-tazobactam, cefepime, ceftazidime, imipenem, meropenem, gentamicin, amikacin, and ciprofloxacin. CRKP was confirmed to be resistant to piperacillin-tazobactam, cefepime, ceftazidime, imipenem, gentamicin, and ciprofloxacin. All strains were stored at –80 °C in 50% glycerol and 50% Luria-Bertani (LB) or tryptic soy (TS) broth, grown on LB or TS plates, and aerated at 37 °C.
(§1) The minimum bactericidal concentration (MBC) was determined as previously described with minor modifications. Briefly, bacteria were cultured in the mid-log phase and diluted to 5 × 10^5 colony-forming unit (CFU)/mL in 10 mM sodium phosphate buffer (pH 7.4) with a 1% volume of TS broth. They were incubated for 1 h with various peptides which were two-fold diluted serially from 64 μg/mL to 0 μg/mL concentrations in a 96-well plate. The samples were inoculated TS agar plate and incubated overnight at 37 °C. The value of MBC was determined at the lowest concentrations at which no colonies were identified.
(§2) We used the CFU counting method to measure antibacterial activity, with all bacteria cultured to the mid-log phase in an appropriate broth medium. Bacterial CFUs were counted after overnight culture at 37 °C on TS or LB agar plates. The MBC value and antibacterial activity in blood components were determined as previously described. Mouse and human whole blood were collected and diluted with PBS (pH 7.4) to measure the ex vivo antibacterial activity of AMPR-22. For that test, AMPR-22 (10 μg) was added to each whole blood solution and incubated at 37 °C with shaking at 200 rpm. At each time point, it was incubated with bacteria (1 × 10^3 CFU) for 30 min. Each sample was inoculated on an LB agar plate, and CFU counting was performed. To measure the in vivo activity of AMPR-22, 1 × 10^8 CFU of bacteria were injected into BALB/c mice, and an hour later, 10 mg/kg of the test peptides were injected. Blood samples were collected by tail cut, serially diluted with PBS (pH 7.4), and inoculated on LB-agar plates, followed by CFU counting. To estimate the functional half-life of AMPR-22, 40 mg/kg of each tested peptide were injected into mice. Whole blood sampling was performed by cardiac puncture, and the plasma was isolated by centrifugation (2000× g, 15 min). The isolated plasma was incubated with bacteria (1 × 10^3 CFU) for an hour, and then the CFU counting method was performed.

[2] = test system: Methicillin-resistant S. aureus (MRSA) ATCC 33591; assay type: cell-based, Staphylococcus aureus; conditions: ATCC 33591, 1 h
Method: as §1, §2

[3] = test system: Staphylococcus aureus ATCC 29213; assay type: cell-based; conditions: ATCC 29213, 1 h, pH 7.4
Method: as §1, §2

[4] = test system: Pseudomonas aeruginosa ATCC 27853; assay type: cell-based; conditions: ATCC 27853, 1 h
Method: as §1, §2

Row | Compound | MBC Value, CRPA [1] [µg/mL] | MBC Value, MRSA [2] [µg/mL] | MBC Value, S. aureus [3] [µg/mL] | MBC Value, P. aeruginosa [4] [µg/mL]
1 | CC[C@H](C)[C@H](NC(=O)CNC(=O)[C@H](CCSC)NC(=O)CNC(=O)[C@@H](NC(=O)[C@H](C)NC(=O)[C@H](CCSC)NC(=O)[C@H](Cc1ccccc1)NC(=O)[C@@H](NC(=O)CNC(=O)[C@H](Cc1ccccc1)NC(=O)[C@@H](NC(=O)CNC(=O)CNC(=O)[C@H](CO)NC(=O)[C@H](CCCCN)NC(=O)[C@H](CCSC)NC(=O)[C@H](CCSC)NC(=O)[C@H](CCCCN)NC(=O)[C@@H](N)CCCCN)[C@@H](C)O)[C@@H](C)O)[C@@H](C)CC)C(=O)N[C@@H](CCCNC(=N)N)C(=O)O [K2] (H-KKMMKSGGTFGTFMAIGMGIR-OH) | 16 (≈ 7.11 µM) | 64 (≈ 28.4 µM) | 32 (≈ 14.2 µM) | 16 (≈ 7.11 µM)
2 | CC[C@H](C)[C@H](NC(=O)CNC(=O)[C@H](CCSC)NC(=O)CNC(=O)[C@@H](NC(=O)[C@H](C)NC(=O)[C@H](CCSC)NC(=O)[C@H](Cc1ccccc1)NC(=O)[C@@H](NC(=O)CNC(=O)[C@H](Cc1ccccc1)NC(=O)[C@@H](NC(=O)CNC(=O)CNC(=O)[C@H](CCCCN)NC(=O)[C@H](CCCCN)NC(=O)[C@H](CCSC)NC(=O)[C@H](CCSC)NC(=O)[C@H](CCCCN)NC(=O)[C@@H](N)CCCCN)[C@@H](C)O)[C@@H](C)O)[C@@H](C)CC)C(=O)N[C@@H](CCCNC(=N)N)C(=O)O [K3] (H-KKMMKKGGTFGTFMAIGMGIR-OH) | 8 (≈ 3.49 µM) | 32 (≈ 14 µM) | 16 (≈ 6.98 µM) | 8 (≈ 3.49 µM)
3 | CC[C@H](C)[C@H](NC(=O)CNC(=O)[C@H](CCSC)NC(=O)CNC(=O)[C@@H](NC(=O)[C@H](C)NC(=O)[C@H](CCSC)NC(=O)[C@H](Cc1ccccc1)NC(=O)[C@@H](NC(=O)CNC(=O)[C@H](Cc1ccccc1)NC(=O)[C@H](CCCCN)NC(=O)CNC(=O)CNC(=O)[C@H](CCCCN)NC(=O)[C@H](CCCCN)NC(=O)[C@H](CCSC)NC(=O)[C@H](CCSC)NC(=O)[C@@H](N)CCCCN)[C@@H](C)O)[C@@H](C)CC)C(=O)N[C@@H](CCCNC(=N)N)C(=O)O [d58K] (H-KMMKKGGKFGTFMAIGMGIR-OH) | 8 (≈ 3.65 µM) | 2 (≈ 0.913 µM) | 8 (≈ 3.65 µM) | 2 (≈ 0.913 µM)
4 | CC[C@H](C)[C@H](NC(=O)CNC(=O)[C@H](CCSC)NC(=O)CNC(=O)[C@@H](NC(=O)[C@H](C)NC(=O)[C@H](CCSC)NC(=O)[C@H](Cc1ccccc1)NC(=O)[C@@H](NC(=O)CNC(=O)[C@H](Cc1ccccc1)NC(=O)[C@H](CCCCN)NC(=O)CNC(=O)CNC(=O)[C@H](CCCCN)NC(=O)[C@H](CCCCN)NC(=O)[C@H](CCSC)NC(=O)[C@H](CCCCN)NC(=O)[C@@H](N)CCCCN)[C@@H](C)O)[C@@H](C)CC)C(=O)N[C@@H](CCCNC(=N)N)C(=O)O [d60M] (H-KKMKKGGKFGTFMAIGMGIR-OH) | 4 (≈ 1.83 µM) | 1 (≈ 0.457 µM) | 4 (≈ 1.83 µM) | 2 (≈ 0.915 µM)
5 | CC[C@H](C)[C@H](NC(=O)CNC(=O)[C@H](CCSC)NC(=O)CNC(=O)[C@@H](NC(=O)[C@H](C)NC(=O)[C@H](CCSC)NC(=O)[C@H](Cc1ccccc1)NC(=O)[C@@H](NC(=O)CNC(=O)[C@H](Cc1ccccc1)NC(=O)[C@H](CCCCN)NC(=O)CNC(=O)CNC(=O)[C@H](CCCCN)NC(=O)[C@H](CCSC)NC(=O)[C@H](CCSC)NC(=O)[C@H](CCCCN)NC(=O)[C@@H](N)CCCCN)[C@@H](C)O)[C@@H](C)CC)C(=O)N[C@@H](CCCNC(=N)N)C(=O)O [d62K] (H-KKMMKGGKFGTFMAIGMGIR-OH) | 8 (≈ 3.65 µM) | 8 (≈ 3.65 µM) | 8 (≈ 3.65 µM) | 2 (≈ 0.913 µM)
6 | CC[C@H](C)[C@H](NC(=O)CNC(=O)[C@H](CCSC)NC(=O)CNC(=O)[C@@H](NC(=O)[C@H](C)NC(=O)[C@H](CCSC)NC(=O)[C@H](Cc1ccccc1)NC(=O)[C@@H](NC(=O)CNC(=O)[C@H](Cc1ccccc1)NC(=O)[C@H](CCCCN)NC(=O)CNC(=O)[C@H](CCCCN)NC(=O)[C@H](CCCCN)NC(=O)[C@H](CCSC)NC(=O)[C@H](CCSC)NC(=O)[C@H](CCCCN)NC(=O)[C@@H](N)CCCCN)[C@@H](C)O)[C@@H](C)CC)C(=O)N[C@@H](CCCNC(=N)N)C(=O)O [d64G] (H-KKMMKKGKFGTFMAIGMGIR-OH) | 4 (≈ 1.77 µM) | 1 (≈ 0.442 µM) | 2 (≈ 0.885 µM) | 2 (≈ 0.885 µM)
7 | CC[C@H](C)[C@H](NC(=O)CNC(=O)[C@H](CCSC)NC(=O)CNC(=O)[C@@H](NC(=O)[C@H](C)NC(=O)[C@H](CCSC)NC(=O)[C@H](Cc1ccccc1)NC(=O)[C@@H](NC(=O)CNC(=O)[C@H](Cc1ccccc1)NC(=O)CNC(=O)CNC(=O)[C@H](CCCCN)NC(=O)[C@H](CCCCN)NC(=O)[C@H](CCSC)NC(=O)[C@H](CCSC)NC(=O)[C@H](CCCCN)NC(=O)[C@@H](N)CCCCN)[C@@H](C)O)[C@@H](C)CC)C(=O)N[C@@H](CCCNC(=N)N)C(=O)O [d66K] (H-KKMMKKGGFGTFMAIGMGIR-OH) | 4 (≈ 1.83 µM) | 4 (≈ 1.83 µM) | 8 (≈ 3.65 µM) | 4 (≈ 1.83 µM)
8 | CC[C@H](C)[C@H](NC(=O)CNC(=O)[C@H](CCSC)NC(=O)CNC(=O)[C@@H](NC(=O)[C@H](C)NC(=O)[C@H](CCSC)NC(=O)[C@H](Cc1ccccc1)NC(=O)[C@@H](NC(=O)CNC(=O)[C@H](CCCCN)NC(=O)CNC(=O)CNC(=O)[C@H](CCCCN)NC(=O)[C@H](CCCCN)NC(=O)[C@H](CCSC)NC(=O)[C@H](CCSC)NC(=O)[C@H](CCCCN)NC(=O)[C@@H](N)CCCCN)[C@@H](C)O)[C@@H](C)CC)C(=O)N[C@@H](CCCNC(=N)N)C(=O)O [d67F] (H-KKMMKKGGKGTFMAIGMGIR-OH) | 8 (≈ 3.69 µM) | 4 (≈ 1.84 µM) | 8 (≈ 3.69 µM) | 4 (≈ 1.84 µM)
9 | CC[C@H](C)[C@H](NC(=O)CNC(=O)[C@H](CCSC)NC(=O)CNC(=O)[C@@H](NC(=O)[C@H](C)NC(=O)[C@H](CCSC)NC(=O)[C@@H](NC(=O)CNC(=O)[C@H](Cc1ccccc1)NC(=O)[C@H](CCCCN)NC(=O)CNC(=O)CNC(=O)[C@H](CCCCN)NC(=O)[C@H](CCCCN)NC(=O)[C@H](CCSC)NC(=O)[C@H](CCSC)NC(=O)[C@H](CCCCN)NC(=O)[C@@H](N)CCCCN)[C@@H](C)O)[C@@H](C)CC)C(=O)N[C@@H](CCCNC(=N)N)C(=O)O [d70F] (H-KKMMKKGGKFGTMAIGMGIR-OH) | >256 | 128 (≈ 59 µM) | – | 128 (≈ 59 µM)
10 | CC[C@H](C)[C@H](NC(=O)CNC(=O)[C@H](CCSC)NC(=O)CNC(=O)[C@H](C)NC(=O)[C@H](CCSC)NC(=O)[C@H](Cc1ccccc1)NC(=O)[C@@H](NC(=O)CNC(=O)[C@H](Cc1ccccc1)NC(=O)[C@H](CCCCN)NC(=O)CNC(=O)CNC(=O)[C@H](CCCCN)NC(=O)[C@H](CCCCN)NC(=O)[C@H](CCSC)NC(=O)[C@H](CCSC)NC(=O)[C@H](CCCCN)NC(=O)[C@@H](N)CCCCN)[C@@H](C)O)C(=O)N[C@@H](CCCNC(=N)N)C(=O)O [d73I] (H-KKMMKKGGKFGTFMAGMGIR-OH) | >256 | >256 | – | >256

Source: PMC8348110, “A Novel Peptide Derived from the Transmembrane Domain of Romo1 Is a Promising Candidate for Sepsis Treatment and Multidrug-Resistant Bacteria” (International Journal of Molecular Sciences, 2021)
